These results are taken from PMC9186491, “Novel Small Molecule Tyrosine Kinase 2 Pseudokinase Ligands Block Cytokine-Induced TYK2-Mediated Signaling Pathways” (Frontiers in Immunology, 2022).

As a reminder, the fraction unbound is free concentration divided by total concentration. Lower therefore signals little free substance. In general, solubility refers to the concentration that dissolves in the medium under given conditions. In general, Kd refers to the equilibrium constant for the complex coming apart. A word on the half-life: it is the time in which the quantity being followed falls by half. A lower half-life goes with fast loss. As usually defined, the logD is lipophilicity at a set pH, counting ionised and neutral species. A higher logD goes with higher lipophilicity.

Molecules are shown by their SMILES. Converted amounts (≈) assume the structure as drawn. Like-named read-outs stand apart in the source and are kept apart here. Where only a bound is given, the exact number is not on record here.

A short description of series [1]: PPB, Mk. The class given is in vitro ADME. Particulars: monkey, plasma.
Series [2] concerns the target JAK2 (Homo sapiens, UniProt O60674). In words: Z'LYTE JAK kinase inhibition assay, JAK2. Format: biochemical. Particulars: read-out: JAK Catalytic Selectivity (IC50) JAK2.
Series [3] in a line: Solubility (PBS/Fas/Fes). Format: physicochemical.
Series [4] deals with JAK1/3-dependent IL2-induced phosphorylation of STAT5 (Tyr694/699) in Kit225 cells. In words: JAK cellular selectivity assay, IL2-pSTAT5 (JAK1/3). The class given is cell-based. The note with it: Homo sapiens; Kit225 cells; read-out: JAK Cellular Selectivity (IC50) IL2-pSTAT5 (JAK1/3). As to the method:
(§1) The cells were then ready for the assay after incubating for 2 hours in a humidified, 5% CO2 cell culture incubator at 37°C. […] The curve fit was generated, and statistical analysis was performed using GraphPad Prism. IC50 values were derived by non-linear regression analysis and defined as the compound concentration at which the response level was reduced to half of its maximum relative to a DMSO control.

In series [5] the target is T1, TYK2 JH1 kinase domain (Homo sapiens, UniProt P29597).
T1 construct: purchased Eurofins DiscoverX Corporation (contract assay)
T1 sequence (P29597 897-1176 limits assumed): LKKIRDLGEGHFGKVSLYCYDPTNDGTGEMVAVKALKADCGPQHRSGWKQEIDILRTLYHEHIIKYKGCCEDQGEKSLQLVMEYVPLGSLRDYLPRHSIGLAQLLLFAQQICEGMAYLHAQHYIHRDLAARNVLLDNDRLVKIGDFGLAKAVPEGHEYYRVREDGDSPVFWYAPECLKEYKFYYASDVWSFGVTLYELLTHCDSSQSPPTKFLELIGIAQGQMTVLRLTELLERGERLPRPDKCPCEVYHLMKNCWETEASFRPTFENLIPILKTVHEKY
Put plainly: KdELECT competition binding assay, TYK2 JH1. The note with it: isolated TYK2 JH1 domain. As to the method:
(§2) The KdELECT competition assays were performed to test the binding affinity of compounds to the JH1 kinase region or JH2 pseudokinase region in TYK2 or JAK by ligand competition with JH1 or JH2 protein segments. The assay was carried out at Eurofins DiscoverX Corporation following the established standard protocol (DiscoverX, San Diego, CA). In this assay, compounds that bind to the kinase or pseudokinase protein regions prevent the protein binding to the immobilized ligand and reduce the amount of kinase matter captured on the solid surface. […] Dissociation constants (Kds) for test compound-kinase interactions are calculated by measuring the amount of kinase captured on the solid support as a function of the test compound concentration. […] The ligated beads were blocked with excess biotin and washed with blocking buffer to remove unbound ligand and to reduce nonspecific binding. […] All reactions were performed in polypropylene 384-well plates with a final volume of 20 μL. […] The beads were then re-suspended in the elution buffer and incubated at room temperature with shaking for 30 minutes. The kinase concentration in the eluant was measured by qPCR. Two replicates were performed and averaged to obtain the Kd measurement.

Series [6] concerns the target T2, JAK3 JH1 kinase domain (Homo sapiens, UniProt P52333).
T2 construct: purchased Eurofins DiscoverX Corporation (contract assay)
Put plainly: KdELECT competition binding assay, JAK3 JH1. The note with it: read-out: JAK Binding Selectivity (Kd) Catalytical Domain (JH1) JAK3. The procedure: as §2

In series [7] the test system is JAK2-dependent EPO-induced phosphorylation of STAT5 (Tyr694/699) in TF1 cells. Put plainly: JAK cellular selectivity assay, EPO-pSTAT5 (JAK2). The class given is cell-based, human. The note with it: Homo sapiens, TF-1; TF1 cells; read-out: JAK Cellular Selectivity (IC50) EPO-pSTAT5 (JAK2). The procedure: as §1
Series [8] is described as follows: LM T1/2, M. The class given is in vitro ADME. Particulars: mouse, liver microsomes. In general terms: Microsomes from liver hold many membrane-bound enzymes, among them those of drug oxidation.
Series [9] can be described thus: PPB, R. Format: in vitro ADME. Particulars: rat, plasma.
Series [10] deals with CYP450 2C19 (Homo sapiens, UniProt P33261). In words: CYP450 inhibition, 2C19. The class given is in vitro ADME.
Chain of CYP450 2C19 (P33261 whole entry): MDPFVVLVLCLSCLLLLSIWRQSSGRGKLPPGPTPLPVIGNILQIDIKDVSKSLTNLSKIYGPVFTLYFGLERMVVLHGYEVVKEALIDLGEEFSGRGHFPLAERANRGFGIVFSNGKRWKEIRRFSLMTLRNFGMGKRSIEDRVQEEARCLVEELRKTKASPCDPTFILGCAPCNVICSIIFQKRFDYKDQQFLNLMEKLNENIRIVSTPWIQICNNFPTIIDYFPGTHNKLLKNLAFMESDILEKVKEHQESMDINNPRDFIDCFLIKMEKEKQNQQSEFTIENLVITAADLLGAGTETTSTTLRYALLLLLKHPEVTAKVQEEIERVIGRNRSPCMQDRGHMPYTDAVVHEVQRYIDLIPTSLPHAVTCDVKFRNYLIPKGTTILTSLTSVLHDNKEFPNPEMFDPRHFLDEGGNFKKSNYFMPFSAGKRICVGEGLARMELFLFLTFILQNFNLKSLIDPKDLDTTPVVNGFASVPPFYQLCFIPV
For series [11], the target named is CYP450 2C9 (Homo sapiens, UniProt P11712). Put plainly: CYP450 inhibition, 2C9. The class given is in vitro ADME.
Chain of CYP450 2C9 (P11712 whole entry): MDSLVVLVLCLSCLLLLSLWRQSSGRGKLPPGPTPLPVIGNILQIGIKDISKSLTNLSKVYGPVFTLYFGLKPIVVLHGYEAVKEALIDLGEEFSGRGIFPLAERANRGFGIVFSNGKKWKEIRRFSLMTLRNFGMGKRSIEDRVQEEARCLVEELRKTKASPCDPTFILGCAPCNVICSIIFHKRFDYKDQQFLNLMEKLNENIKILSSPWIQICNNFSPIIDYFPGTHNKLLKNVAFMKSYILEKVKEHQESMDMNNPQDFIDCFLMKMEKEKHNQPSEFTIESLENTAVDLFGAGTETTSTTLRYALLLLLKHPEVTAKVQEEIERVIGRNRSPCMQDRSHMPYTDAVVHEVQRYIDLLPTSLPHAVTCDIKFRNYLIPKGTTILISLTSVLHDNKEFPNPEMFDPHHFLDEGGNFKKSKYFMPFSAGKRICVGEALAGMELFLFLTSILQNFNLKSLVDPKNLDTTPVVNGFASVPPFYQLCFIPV
Series [12] is described as follows: LM T1/2, R. The class given is in vitro ADME. The note with it: rat, liver microsomes.
A short description of series [13]: LM T1/2, D. Particulars: dog, liver microsomes. The class given is in vitro ADME.
Series [14] is described as follows: PPB, H. The class given is in vitro ADME. Particulars: human, plasma.
Series [15] deals with JAK1-dependent IL6-induced phosphorylation of STAT3 (Tyr705) in TF1 cells. In words: JAK cellular selectivity assay, IL6-pSTAT3 (JAK1). Format: cell-based. The note with it: Homo sapiens, TF-1; TF1 cells; read-out: JAK Cellular Selectivity (IC50) IL6-pSTAT3 (JAK1). As to the method: as §1
The target of series [16] is CYP450 2D6 (Homo sapiens, UniProt P10635). In words: CYP450 inhibition, 2D6. Format: in vitro ADME.
Chain of CYP450 2D6 (P10635 whole entry): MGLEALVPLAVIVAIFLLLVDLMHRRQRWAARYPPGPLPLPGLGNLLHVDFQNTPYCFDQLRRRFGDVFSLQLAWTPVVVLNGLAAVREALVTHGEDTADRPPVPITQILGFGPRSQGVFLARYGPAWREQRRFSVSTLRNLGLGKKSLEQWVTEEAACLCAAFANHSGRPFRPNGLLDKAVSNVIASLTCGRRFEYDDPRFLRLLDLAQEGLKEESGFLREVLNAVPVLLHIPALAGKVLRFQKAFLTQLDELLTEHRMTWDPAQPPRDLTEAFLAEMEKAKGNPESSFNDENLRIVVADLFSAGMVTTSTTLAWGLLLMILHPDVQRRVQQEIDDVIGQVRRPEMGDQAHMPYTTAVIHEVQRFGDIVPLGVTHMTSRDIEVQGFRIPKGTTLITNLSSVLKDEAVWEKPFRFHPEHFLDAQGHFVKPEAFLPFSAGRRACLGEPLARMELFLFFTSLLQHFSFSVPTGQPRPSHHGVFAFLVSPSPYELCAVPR
A short description of series [17]: LogD. The class given is physicochemical.
Series [18] deals with CYP450 3A4 (Homo sapiens, UniProt P08684). In words: CYP450 inhibition, 3A4. Format: in vitro ADME.
Chain of CYP450 3A4 (P08684 whole entry, the tested form may be a part): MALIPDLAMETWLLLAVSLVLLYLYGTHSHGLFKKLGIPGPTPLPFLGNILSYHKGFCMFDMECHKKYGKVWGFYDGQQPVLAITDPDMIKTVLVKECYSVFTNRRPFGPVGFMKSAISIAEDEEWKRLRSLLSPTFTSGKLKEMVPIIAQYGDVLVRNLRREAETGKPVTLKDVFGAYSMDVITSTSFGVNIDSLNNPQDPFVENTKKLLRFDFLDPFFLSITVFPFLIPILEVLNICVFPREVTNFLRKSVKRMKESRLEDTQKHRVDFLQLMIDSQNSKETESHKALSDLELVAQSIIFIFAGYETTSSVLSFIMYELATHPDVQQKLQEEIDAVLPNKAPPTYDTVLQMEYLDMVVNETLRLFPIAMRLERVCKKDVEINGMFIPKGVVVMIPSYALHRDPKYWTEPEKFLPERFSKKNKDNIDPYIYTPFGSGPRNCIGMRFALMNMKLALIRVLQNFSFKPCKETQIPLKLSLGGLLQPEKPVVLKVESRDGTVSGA
Series [19] addresses T3, JAK1 JH2 pseudokinase domain (Homo sapiens, UniProt P23458).
T3 construct: purchased Eurofins DiscoverX Corporation (contract assay)
In words: KdELECT competition binding assay, JAK1 JH2. The note with it: read-out: JAK Binding Selectivity (Kd) Pseudokinase Domain (JH2) JAK1. The procedure:
as §2

For series [20], the target named is T4, JAK1 JH1 kinase domain (Homo sapiens, UniProt P23458).
T4 construct: purchased Eurofins DiscoverX Corporation (contract assay)
T4 sequence (P23458 875-1153 limits assumed): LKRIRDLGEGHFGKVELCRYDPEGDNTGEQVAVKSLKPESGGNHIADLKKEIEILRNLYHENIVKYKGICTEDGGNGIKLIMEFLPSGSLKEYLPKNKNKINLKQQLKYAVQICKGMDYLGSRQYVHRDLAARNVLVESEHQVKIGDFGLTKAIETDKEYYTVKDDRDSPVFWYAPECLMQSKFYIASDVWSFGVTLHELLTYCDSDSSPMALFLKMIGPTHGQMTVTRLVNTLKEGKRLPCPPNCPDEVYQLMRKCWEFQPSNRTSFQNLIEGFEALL
Put plainly: KdELECT competition binding assay, JAK1 JH1. Particulars: read-out: JAK Binding Selectivity (Kd) Catalytical Domain (JH1) JAK1. As to the method:
as §2

The mark [21] stands for this setting: FaSSIF, read-out: Solubility, Fas.
Where [22] appears, read: FeSSIF (Fes [sic]), fessif, read-out: Solubility, Fes.
Setting [23] is: PBS, aqueous buffer, read-out: Solubility, PBS.
The mark [24] stands for this setting: 3A4(m), read-out: CYP450 3A4(m).
The mark [25] stands for this setting: 3A4(t), read-out: CYP450 3A4(t).

T2 sequence (P52333 822-1111 limits assumed): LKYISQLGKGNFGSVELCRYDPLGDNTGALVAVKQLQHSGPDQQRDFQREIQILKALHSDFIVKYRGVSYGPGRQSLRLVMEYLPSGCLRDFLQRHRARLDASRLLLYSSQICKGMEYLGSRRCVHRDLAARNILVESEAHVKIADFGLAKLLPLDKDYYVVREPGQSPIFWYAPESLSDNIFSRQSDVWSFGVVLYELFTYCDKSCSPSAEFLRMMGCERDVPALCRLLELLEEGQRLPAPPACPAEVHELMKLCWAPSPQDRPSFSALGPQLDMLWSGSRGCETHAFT
Chain of JAK2 (O60674 whole entry): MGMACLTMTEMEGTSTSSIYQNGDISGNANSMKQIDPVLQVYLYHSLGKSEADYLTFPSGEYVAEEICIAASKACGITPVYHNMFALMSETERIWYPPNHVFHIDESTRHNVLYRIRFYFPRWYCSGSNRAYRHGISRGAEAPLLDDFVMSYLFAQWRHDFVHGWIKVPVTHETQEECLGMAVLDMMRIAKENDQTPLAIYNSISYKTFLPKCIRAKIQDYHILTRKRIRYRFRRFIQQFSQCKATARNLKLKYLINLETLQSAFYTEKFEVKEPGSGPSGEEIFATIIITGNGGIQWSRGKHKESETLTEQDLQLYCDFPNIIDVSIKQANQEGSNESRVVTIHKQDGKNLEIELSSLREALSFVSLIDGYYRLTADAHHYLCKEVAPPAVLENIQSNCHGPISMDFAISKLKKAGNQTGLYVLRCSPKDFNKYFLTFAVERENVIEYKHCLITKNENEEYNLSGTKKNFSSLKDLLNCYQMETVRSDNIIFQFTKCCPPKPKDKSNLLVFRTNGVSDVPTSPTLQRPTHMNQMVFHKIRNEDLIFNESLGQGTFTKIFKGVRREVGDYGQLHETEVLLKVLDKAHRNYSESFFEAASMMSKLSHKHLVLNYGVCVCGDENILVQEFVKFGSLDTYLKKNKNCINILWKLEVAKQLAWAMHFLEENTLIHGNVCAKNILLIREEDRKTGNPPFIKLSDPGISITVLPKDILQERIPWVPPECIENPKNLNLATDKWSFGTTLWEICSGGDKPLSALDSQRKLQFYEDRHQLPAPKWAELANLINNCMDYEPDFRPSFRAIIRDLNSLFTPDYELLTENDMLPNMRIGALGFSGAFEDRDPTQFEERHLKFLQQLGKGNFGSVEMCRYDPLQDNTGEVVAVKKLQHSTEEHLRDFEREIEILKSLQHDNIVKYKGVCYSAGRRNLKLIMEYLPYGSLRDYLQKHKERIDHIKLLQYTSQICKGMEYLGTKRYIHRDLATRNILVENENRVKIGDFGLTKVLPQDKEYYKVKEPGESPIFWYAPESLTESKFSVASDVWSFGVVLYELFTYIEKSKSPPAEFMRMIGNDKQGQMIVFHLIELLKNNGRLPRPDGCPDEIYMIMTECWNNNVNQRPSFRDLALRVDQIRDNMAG
T3 sequence (P23458 583-855 limits assumed): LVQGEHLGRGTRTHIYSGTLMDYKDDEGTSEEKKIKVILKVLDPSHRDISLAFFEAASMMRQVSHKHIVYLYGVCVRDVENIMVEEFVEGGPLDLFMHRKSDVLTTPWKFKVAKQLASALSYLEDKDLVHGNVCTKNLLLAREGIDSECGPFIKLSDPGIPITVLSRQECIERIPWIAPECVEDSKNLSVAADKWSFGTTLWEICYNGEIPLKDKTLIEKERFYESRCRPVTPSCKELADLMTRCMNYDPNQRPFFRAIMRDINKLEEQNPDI

With `[2H]C([2H])([2H])NC(=O)c1nnc(NC(=O)N2CCC2)cc1Nc1cccc(-c2ncn(C)n2)c1OC` [SHR9332], the free fraction (fraction unbound) came to 0.231 in series [1], 0.254 in [9] and 0.274 in [14]. Moreover, the IC50 in series [2] is above 10 µM; in [4], above 10 µM; in series [7] it was above 10 µM; in series [10], above 30 µM; in series [11] it was above 30 µM; in [15], 2.8 ± 1.7 µM. The IC50 in series [16], in series [18] (setting [24]) and in [18] (setting [25]) was above 30 µM each time. For the same compound, the results for the solubility in series [3] (setting [21]), in series [3] (setting [22]) and in [3] (setting [23]) were 71.4 µM (≈ 31.5 µg/mL), 108 µM (≈ 47.6 µg/mL) and 25.6 µM (≈ 11.3 µg/mL), respectively. Further, the Kd is above 20 µM in series [5], 4.5 µM in [6], 0.0018 µM in series [19] and above 20 µM in series [20]. Moreover, the half-life in series [8] is 49.8 min; in series [12], above 67 min; in [13] it was 46.5 min. In addition, in series [17], the logD stood at 0.48.
On to `CNC(=O)c1nnc(NC(=O)C2CC2)c2[nH]c(-c3ccc(N)cc3OC)cc12` [SHR2396], for which the fraction unbound in series [1] is 0.0351; in [9], 0.0474; in series [14], 0.0258. Besides, the IC50 was above 10 µM in series [2]; 1.4 ± 1.4 µM in series [4]; above 10 µM in [7]; above 30 µM in series [10]; above 30 µM in series [11]; 0.15 ± 0.059 µM in series [15]. For the same compound, the IC50 in series [16], in series [18] (setting [24]) and in series [18] (setting [25]) was above 30 µM throughout. Also, the values for the solubility in [3] (setting [21]), in series [3] (setting [22]) and in series [3] (setting [23]) were 8.6 µM (≈ 3.27 µg/mL), 8.2 µM (≈ 3.12 µg/mL) and 0.34 µM (≈ 0.129 µg/mL), respectively. The Kd is 0.3 µM in series [5], above 20 µM in series [6], 0.00052 ± 0.0004 µM in [19] and above 20 µM in series [20]. Besides, the half-life is 31 min in series [8], above 67 min in series [12] and above 139 min in series [13]. The logD in series [17] turned out to be 1.19.
Take `CNC(=O)c1nnc(NC(=O)N2CCC2)cc1Nc1cccc(-c2ncn(C)n2)c1OC` [SHR8751]: the free fraction (fraction unbound) in series [1] is 0.281; in series [9] it was 0.329; in series [14], 0.402. For the same compound, the IC50 was above 10 µM in [2]; above 10 µM in series [4]; above 10 µM in [7]; above 30 µM in series [10]; above 30 µM in [11]; 5.8 ± 3.7 µM in series [15]. Further, the IC50 in series [16], in series [18] (setting [24]) and in series [18] (setting [25]) was above 30 µM each time. The solubility in [3] (setting [21]) came out at 60.7 µM (≈ 26.6 µg/mL); in [3] (setting [22]), 60.9 µM (≈ 26.6 µg/mL); in series [3] (setting [23]), 17.6 µM (≈ 7.7 µg/mL). In addition, the Kd in [5] is above 20 µM; in series [6], 3.7 ± 0.07 µM; in series [19], 0.0037 ± 0.00014 µM; in series [20], above 20 µM. Moreover, the half-life is above 139 min in [8], above 67 min in [12] and above 139 min in series [13]. In addition, the logD in [17] is 0.43.
